Measurements as given in the supplement of paper PMC9663587.

Tests used:
LEE011/Ribociclib = compound: CN(C)C(=O)c1cc2cnc(Nc3ccc(N4CCNCC4)cn3)nc2n1C1CCCC1 [LEE011/Ribociclib]; test: increase in dead-cell fraction, 72 h; higher = more death;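 also: breast cancer cell lines in 384-well plates, stained with Hoechst plus LIVE/DEAD far red dye and imaged, cells above an LDR intensity threshold counted dead, Hoechst-negative corpses included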
Neratinib/HKI272 = compound: CCOc1cc2ncc(C#N)c(Nc3ccc(OCc4ccccn4)c(Cl)c3)c2cc1NC(=O)/C=C/CN(C)C [Neratinib/HKI272]; test: as above
[1] = compound: CC(=O)c1c(C)c2cnc(Nc3ccc(N4CCNCC4)cn3)nc2n(C2CCCC2)c1=O; test: as above
[2] = compound: CCN1CCN(Cc2ccc(Nc3ncc(F)c(-c4cc(F)c5nc(C)n(C(C)C)c5c4)n3)nc2)CC1; test: as above
THZ1 = compound: CN(C)C/C=C/C(=O)Nc1ccc(C(=O)Nc2cccc(Nc3ncc(Cl)c(-c4c[nH]c5ccccc45)n3)c2)cc1 [THZ1]; test: as above
[3] = compound: CCc1cnn2c(NCc3ccc[n+]([O-])c3)cc(N3CCCC[C@H]3CCO)nc12; test: as above
BSJ-03-123 = compound: CC(=O)c1c(C)c2cnc(Nc3ccc(N4CCN(CCOCCOCCOCCNC(=O)COc5cccc6c5C(=O)N(C5CCC(=O)NC5=O)C6=O)CC4)cn3)nc2n(C2CCCC2)c1=O [BSJ-03-123]; test: as above
Flavopiridol = compound: CN1CC[C@H](c2c(O)cc(O)c3c(=O)cc(-c4ccccc4Cl)oc23)[C@H](O)C1 [Flavopiridol]; test: as above
Vorinostat = compound: O=C(CCCCCCC(=O)Nc1ccccc1)NO [Vorinostat]
[4] = compound: COc1ccc2c(c1)[C@]1(C[C@H]1c1ccc3c(/C=C/c4ccc(CN5C[C@@H](C)O[C@@H](C)C5)cc4)n[nH]c3c1)C(=O)N2
[5] = compound: CCN1CCN(Cc2ccc(Nc3ncc(F)c(-c4cc(F)c5nc(C)n(C(C)C)c5c4)n3)nc2)CC1
AZD6738 = compound: C[C@@H]1COCCN1c1cc(C2([S@](C)(=N)=O)CC2)nc(-c2cc[nH]c3nccc2-3)n1 [AZD6738]
[6] = compound: CCC1=CN=CN=C1N2CCN(CC2)CC3=NC4=C(N3)C=C(C=C4)C(F)(F)F
BSJ-01-175 = compound: CN(C)C/C=C/C(=O)Nc1ccc(O[C@@H]2CCC[C@@H](Nc3ncc(Cl)c(-c4c[nH]c5ccccc45)n3)C2)cc1 [BSJ-01-175]
AZD2014 = compound: CNC(=O)c1cccc(-c2ccc3c(N4CCOC[C@@H]4C)nc(N4CCOC[C@@H]4C)nc3n2)c1 [AZD2014]
AZD7762 = compound: NC(=O)Nc1cc(-c2cccc(F)c2)sc1C(=O)N[C@H]1CCCNC1 [AZD7762]
Tivantinib/ARQ197 = compound: O=C1NC(=O)[C@@H](c2cn3c4c(cccc24)CCC3)[C@@H]1c1c[nH]c2ccccc12 [Tivantinib/ARQ197]
[7] = compound: CC(=O)Nc1cccc(-n2c(=O)n(C3CC3)c(=O)c3c(Nc4ccc(I)cc4F)n(C)c(=O)c(C)c32)c1
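For GR50, 72 h in this document: breast cancer and non-malignant breast epithelial cell lines, Deep Dye Drop or Dye Drop imaging, nine half-log doses, GR normalized to time-zero plates and DMSO-only controls.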

Cell Line: CAL851
- increase in dead-cell fraction (LEE011/Ribociclib; 0.001 µM): -0.003
- increase in dead-cell fraction (LEE011/Ribociclib; 0.003162 µM): 0.001
- increase in dead-cell fraction (LEE011/Ribociclib; 0.01 µM): 0.0024
- increase in dead-cell fraction (LEE011/Ribociclib; 0.03162 µM): 0
- increase in dead-cell fraction (LEE011/Ribociclib; 0.1 µM): -0.0008
- increase in dead-cell fraction (LEE011/Ribociclib; 0.3162 µM): -0.0059
- increase in dead-cell fraction (LEE011/Ribociclib; 1 µM): 0.0038
- increase in dead-cell fraction (LEE011/Ribociclib; 3.162 µM): 0.0003
- increase in dead-cell fraction (LEE011/Ribociclib; 10 µM): -0.0071
- increase in dead-cell fraction (Neratinib/HKI272; 0.0003162 µM): -0.0016
- increase in dead-cell fraction (Neratinib/HKI272; 0.001 µM): 0.0027
- increase in dead-cell fraction (Neratinib/HKI272; 0.003162 µM): 0.006
- increase in dead-cell fraction (Neratinib/HKI272; 0.01 µM): 0.0409
- increase in dead-cell fraction (Neratinib/HKI272; 0.03162 µM): 0.113
- increase in dead-cell fraction (Neratinib/HKI272; 0.1 µM): 0.199
- increase in dead-cell fraction (Neratinib/HKI272; 0.3162 µM): 0.29
- increase in dead-cell fraction (Neratinib/HKI272; 1 µM): 0.344
- increase in dead-cell fraction (Neratinib/HKI272; 3.162 µM): 0.542
- increase in dead-cell fraction ([1]; 0.0003162 µM): 0.0002
- increase in dead-cell fraction ([1]; 0.001 µM): 0.0074
- increase in dead-cell fraction ([1]; 0.003162 µM): -0.0015
- increase in dead-cell fraction ([1]; 0.01 µM): -0.0049
- increase in dead-cell fraction ([1]; 0.03162 µM): -0.0041
- increase in dead-cell fraction ([1]; 0.1 µM): 0.0052
- increase in dead-cell fraction ([1]; 0.3162 µM): -0.004
- increase in dead-cell fraction ([1]; 1 µM): -0.0071
- increase in dead-cell fraction ([1]; 3.162 µM): -0.006
- increase in dead-cell fraction ([2]; 0.001 µM): -0.0049
- increase in dead-cell fraction ([2]; 0.003162 µM): -0.0095
- increase in dead-cell fraction ([2]; 0.01 µM): -0.0073
- increase in dead-cell fraction ([2]; 0.03162 µM): -0.0136
- increase in dead-cell fraction ([2]; 0.1 µM): -0.0173
- increase in dead-cell fraction ([2]; 0.3162 µM): -0.0161
- increase in dead-cell fraction ([2]; 1 µM): 0.0209
- increase in dead-cell fraction ([2]; 3.162 µM): 0.211
- increase in dead-cell fraction ([2]; 10 µM): 0.266
- increase in dead-cell fraction (THZ1; 0.0001 µM): -0.0023
- increase in dead-cell fraction (THZ1; 0.0003162 µM): -0.0015
- increase in dead-cell fraction (THZ1; 0.001 µM): 0.0049
- increase in dead-cell fraction (THZ1; 0.003162 µM): 0.0027
- increase in dead-cell fraction (THZ1; 0.01 µM): 0.0075
- increase in dead-cell fraction (THZ1; 0.03162 µM): 0.0208
- increase in dead-cell fraction (THZ1; 0.1 µM): 0.053
- increase in dead-cell fraction (THZ1; 0.3162 µM): 0.123
- increase in dead-cell fraction (THZ1; 1 µM): 0.402
- increase in dead-cell fraction ([3]; 0.0001 µM): -0.007
- increase in dead-cell fraction ([3]; 0.0003162 µM): -0.005
- increase in dead-cell fraction ([3]; 0.001 µM): 0.003
- increase in dead-cell fraction ([3]; 0.003162 µM): 0.0409
- increase in dead-cell fraction ([3]; 0.01 µM): 0.2
- increase in dead-cell fraction ([3]; 0.03162 µM): 0.147
- increase in dead-cell fraction ([3]; 0.1 µM): 0.205
- increase in dead-cell fraction ([3]; 0.3162 µM): 0.22
- increase in dead-cell fraction ([3]; 1 µM): 0.217
- increase in dead-cell fraction (BSJ-03-123; 0.001 µM): -0.0043
- increase in dead-cell fraction (BSJ-03-123; 0.003162 µM): -0.0029
- increase in dead-cell fraction (BSJ-03-123; 0.01 µM): -0.0014
- increase in dead-cell fraction (BSJ-03-123; 0.03162 µM): 0.0058
- increase in dead-cell fraction (BSJ-03-123; 0.1 µM): 0.007
- increase in dead-cell fraction (BSJ-03-123; 0.3162 µM): 0.0046
- increase in dead-cell fraction (BSJ-03-123; 1 µM): 0.0134
- increase in dead-cell fraction (BSJ-03-123; 3.162 µM): 0.0379
- increase in dead-cell fraction (BSJ-03-123; 10 µM): 0.0921
- increase in dead-cell fraction (Flavopiridol; 0.0001 µM): -0.0044
- increase in dead-cell fraction (Flavopiridol; 0.0003162 µM): 0.0036
- increase in dead-cell fraction (Flavopiridol; 0.001 µM): 0.0039
- increase in dead-cell fraction (Flavopiridol; 0.003162 µM): -0.0035
- increase in dead-cell fraction (Flavopiridol; 0.01 µM): 0.0021
- increase in dead-cell fraction (Flavopiridol; 0.03162 µM): 0.001
- increase in dead-cell fraction (Flavopiridol; 0.1 µM): 0.0068
- increase in dead-cell fraction (Flavopiridol; 0.3162 µM): 0.0514
- increase in dead-cell fraction (Flavopiridol; 1 µM): 0.103
- GR50, 72 h (Vorinostat): 1.2 µM
- GR50, 72 h [4]: 0.00209 µM
- GR50, 72 h [5]: 1.3 µM
- GR50, 72 h (AZD6738): 4.62 µM
- GR50, 72 h [6]: > 10 µM
- GR50, 72 h (BSJ-01-175): 0.0129 µM
- GR50, 72 h (AZD2014): 0.00819 µM
- GR50, 72 h (AZD7762): 0.0421 µM
- GR50, 72 h (Tivantinib/ARQ197): 0.198 µM
- GR50, 72 h [7]: 0.0132 µM
